{"source": "paper PMC4578755", "about": "“Development of novel cellular histone-binding and chromatin-displacement assays for bromodomain drug discovery” (Epigenetics & Chromatin, 2015)", "biological_target": "T1, TRIM24-PB chromatin binding in HeLa TRIM24-PB cells (Homo sapiens, UniProt O15164)", "T1 construct": "The FLAG-TRIM24-PB construct (residues 810–1050) was generated by PCR amplification; expressed in transfected cells", "T1 sequence (O15164 810-1050)": "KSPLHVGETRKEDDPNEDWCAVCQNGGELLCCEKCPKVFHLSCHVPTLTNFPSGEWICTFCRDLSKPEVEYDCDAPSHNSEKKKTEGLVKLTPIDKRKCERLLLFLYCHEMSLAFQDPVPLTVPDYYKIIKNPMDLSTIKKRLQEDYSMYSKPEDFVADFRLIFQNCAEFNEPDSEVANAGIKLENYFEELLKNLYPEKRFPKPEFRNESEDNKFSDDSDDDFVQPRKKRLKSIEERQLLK", "assay": "In situ cell extraction with IF in HeLa TRIM24-PB cells", "assay_type": "cell-based", "procedure": "OV90 or HeLa cells (20,000 cells/100 µL) were seeded into 96-well plates (Corning Costar #3603) using RPMI or DMEM medium, respectively, supplemented with 10 % FBS and grown overnight. Test agents were serially diluted in DMSO (with or without SAHA) to generate 10X master compound plates. From here, 11 µL was transferred into each well containing 100 µL of growth media followed by shaking on a rotation table (15 min, 300 rpm at RT) and incubation at 37 °C for 2 h. Plates were washed once with PBS (150 µL/well) and then with cold, freshly prepared Cytoskeleton (CSK) Buffer (10 mM PIPES, 300 mM Sucrose, 100 mM NaCl, 3 mM MgCl2; pH = 6.8). Immediately thereafter, soluble, non-chromatin-bound proteins were extracted by addition of cold CSK Buffer supplemented with 0.5 % Triton X-100 (150 µL per well) for 10 min at 4 °C followed by 4 % paraformaldehyde fixation (10 min at RT) (Additional file 1: Table S3).\nStandard IF procedures were used. Briefly, cells were permeabilized (0.5 % Triton X-100 in PBS) for 15 min and incubated with blocking solution (DAKO #X0909) for 30 min. The following primary antibodies were used: goat anti-V5 (Bethyl #A190-119A) 1:200; mouse anti-FLAG (Sigma #F1804) 1:200; rabbit anti-BRD4 (Abcam #ab128874) 1:200; rabbit anti-TRIM24 (Proteintech #14208-1-AP) 1:400; rabbit anti-K3K23Ac (Cell Signaling #8848) 1:200, and mouse anti-histone H3 (Active Motif #39763) 1:4000. Alexa Fluor-conjugated secondary antibodies were from Invitrogen and Hoechst 33342 (Invitrogen, #H3570) was used for nuclei counterstaining (10 µg/ml). For each Alexa fluorochrome, images (4–10 fields per well; 20X magnifications) were acquired using the Operetta High-Content Screening System (PerkinElmer). Image analysis was performed in Harmony software (PerkinElmer) by selecting nuclei and cytoplasm in Hoechst channel. Gating for single cells of flat morphology was done based on nuclei area, roundness and intensity of Hoechst in the nucleus and in the cytoplasm. In every gated cell, the mean signal intensity value for each fluorochrome was calculated separately in nucleus and cytoplasm. The specific nuclear signal was estimated subtracting mean cytoplasmic value from nuclear; and average value was calculated using at least 1000 cells in each well.\nSupplemental Table S3 (Zhan et al.)\nTable S3. In Situ Cell Extraction Procedure (IF)\nStep Parameter Solution Volume Time Temp (°C)\nSeed cells DMEM supplemented with 10 % FBS 37°C,\n2 SAHA treatment SAHA (50 µM) in DMEM with 10% FBS 12 µL 2h 37°C,\n3 Prepare Master 100X final concentration in assay 30 µL […]\nImage analysis: The analysis was performed in Harmony (PerkinElmer) software by selecting nuclei and cytoplasm in Hoechst 33342 channel . […] For each channel “mean nuclear signal“ was calculated as “mean […]", "data": [{"smiles": "Cc1nc(S(=O)(=O)Nc2cc3c(cc2Oc2cccc(OCC(C)C)c2)n(C)c(=O)n3C)cn1C", "note": "[IACS-6558, N-{1,3-dimethyl-6-[3-(2-methylpropoxy)phenoxy]-2-oxo-2,3-dihydro-1H-1,3-benzodiazol-5-yl}-1,2-dimethyl-1H-imidazole-4-sulfonamide]", "values": [{"measurement": "Time to displacement of TRIM24-PB from chromatin", "setting": "HeLa TRIM24-PB", "value": "≤ 5", "unit": "min"}, {"measurement": "IF signal of chromatin-bound TRIM24-PB", "setting": "HeLa TRIM24-PB with SAHA, anti-FLAG and anti-TRIM24 antibodies, 2 h", "value": "reducing the IF signal to baseline"}]}, {"smiles": "O=C(CCCCCCC(=O)Nc1ccccc1)NO", "note": "[SAHA, Suberoylanilide Hydroxamic Acid]", "values": [{"measurement": "SAHA-induced TRIM24-PB chromatin binding (assay window)", "setting": "anti-FLAG antibody", "value": "fivefold"}, {"measurement": "SAHA-induced TRIM24-PB chromatin binding (assay window)", "setting": "anti-TRIM24 antibody", "value": "twofold"}]}]}
